For 17 compounds, T/C results are on record in PubChem BioAssay AID248 (DTP/NCI, 2004).

Several values for one entry are separate records, joined by “and”; a condition that tells them apart may be missing. Equal entries are not always repeated. Inconclusive results and toxic doses are left out.

In the test the test system is L1210 leukemia ip in BDF1 mice, survival T/C. Put plainly: NCI In Vivo Anticancer Drug Screen. Data for tumor model L1210 Leukemia (intraperitoneal) in B6D2F1 (BDF1) mice. The conditions noted are these: endpoint: mean survival time, higher = longer survival. The essentials: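 Tumor cells were implanted, animals were treated, and survival was followed. The result divides the treated measurement by the vehicle-control measurement.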

The mark [1] stands for this setting: dose: 100.0 mg/kg/injection, schedule: Q04DX003 (ip), vehicle: saline.
[2] abbreviates: dose: 200.0 mg/kg/injection, schedule: Q04DX003 (ip), vehicle: saline.
The mark [3] stands for this setting: dose: 400.0 mg/kg/injection, schedule: Q04DX003 (ip), vehicle: saline.
Setting [4] is: dose: 100.0 mg/kg/injection, schedule: Q01DX001 (ip), vehicle: saline.
[5] abbreviates: dose: 200.0 mg/kg/injection, schedule: Q01DX001 (ip), vehicle: saline.
[6] abbreviates: dose: 400.0 mg/kg/injection, schedule: Q01DX001 (ip), vehicle: saline.
Setting [7] is: dose: 100.0 mg/kg/injection, schedule: Q01DX001 (ip), vehicle: Klucel (hydroxypropylcellulose) (HPC).
Setting [8] is: dose: 100.0 mg/kg/injection, schedule: Q04DX002 (ip), vehicle: Klucel (hydroxypropylcellulose) (HPC).
The mark [9] stands for this setting: dose: 200.0 mg/kg/injection, schedule: Q01DX001 (ip), vehicle: Klucel (hydroxypropylcellulose) (HPC).
[10] abbreviates: dose: 400.0 mg/kg/injection, schedule: Q01DX001 (ip), vehicle: Klucel (hydroxypropylcellulose) (HPC).
The mark [11] stands for this setting: dose: 100.0 mg/kg/injection, schedule: Q04DX003 (ip), vehicle: Klucel (hydroxypropylcellulose) (HPC).
The mark [12] stands for this setting: dose: 200.0 mg/kg/injection, schedule: Q04DX003 (ip), vehicle: Klucel (hydroxypropylcellulose) (HPC).
[13] abbreviates: dose: 400.0 mg/kg/injection, schedule: Q04DX003 (ip), vehicle: Klucel (hydroxypropylcellulose) (HPC).

With `CCN(CCO)CC1OC(OC)C2OC(C)(C)OC12` (stereo not given), the T/C is 97 % of control (dose: 100.0 mg/kg/injection, schedule: Q01DX009 (ip), vehicle: saline); 98 % of control under setting [1]; 100 % of control (dose: 200.0 mg/kg/injection, schedule: Q01DX009 (ip), vehicle: saline); 95 % of control under setting [2]; 94 % of control (dose: 400.0 mg/kg/injection, schedule: Q01DX009 (ip), vehicle: saline); 96 % of control under setting [3].

Take `Cc1cccc(N2CCC3(CC2)C(=O)NC(=O)NC3=O)c1`: the T/C is, setting by setting: under setting [4], 94 % of control; under setting [5], 97 % of control; under setting [6], 100 % of control.

With `CC(=O)c1cc(Cl)ccc1O`, the T/C is, setting by setting: under setting [7], 104 % of control; under setting [8], 100 % of control; under setting [9], 106 % of control; (dose: 200.0 mg/kg/injection, schedule: Q04DX002 (ip), vehicle: Klucel (hydroxypropylcellulose) (HPC)) 96 % of control; under setting [10], 97 % of control; (dose: 400.0 mg/kg/injection, schedule: Q04DX002 (ip), vehicle: Klucel (hydroxypropylcellulose) (HPC)) 89 % of control.

With `NC(=S)N/N=C/c1ccc(Cl)s1`, the T/C is, setting by setting: (dose: 25.0 mg/kg/injection, schedule: Q04DX002 (ip), vehicle: Klucel (hydroxypropylcellulose) (HPC)) 95 % of control; (dose: 50.0 mg/kg/injection, schedule: Q04DX002 (ip), vehicle: Klucel (hydroxypropylcellulose) (HPC)) 95 % of control; under setting [8], 98 % of control and 100 % of control.

In the case of `CC(=O)c1ccc2ccccc2c1O`, the T/C was 97 % of control (dose: 100.0 mg/kg/injection, schedule: Q01DX009 (ip), vehicle: other); 101 % of control under setting [1]; 103 % of control (dose: 200.0 mg/kg/injection, schedule: Q01DX009 (ip), vehicle: other); 90 % of control under setting [2]; 106 % of control (dose: 400.0 mg/kg/injection, schedule: Q01DX009 (ip), vehicle: other); 88 % of control under setting [3].

As to `O=C1C=CC(=NCl)C=C1`, the T/C reads like this: (dose: 1.25 mg/kg/injection, schedule: Q01DX015 (ip), vehicle: carboxymethylcellulose (CMC)) 92 % of control; (dose: 2.5 mg/kg/injection, schedule: Q01DX015 (ip), vehicle: carboxymethylcellulose (CMC)) 91 % of control; (dose: 5.0 mg/kg/injection, schedule: Q01DX001 (ip), vehicle: carboxymethylcellulose (CMC)) 114 % of control; (dose: 5.0 mg/kg/injection, schedule: Q01DX015 (ip), vehicle: carboxymethylcellulose (CMC)) 95 % of control; (dose: 10.0 mg/kg/injection, schedule: Q01DX001 (ip), vehicle: carboxymethylcellulose (CMC)) 111 % of control.

As for `COc1ccc(Cc2c3cc(OC)c(OC)cc3cc[n+]2[O-])cc1OC`, the T/C under setting [4] was 91 % of control, the T/C under setting [5] is 96 % of control and the T/C under setting [6] was 96 % of control.

Regarding `c1cc(-c2sc(-c3ccncc3)c(-c3ccncc3)c2-c2ccncc2)ccn1`, the T/C is 107 % of control under setting [7], 98 % of control under setting [9] and 98 % of control under setting [10].

Consider `O=C(Nc1cccc(C2=NCCN2)c1)c1cccc2c(C(=O)Nc3cccc(C4=NCCN4)c3)cccc12`, for which the T/C (dose: 15.0 mg/kg/injection, schedule: Q01DX Z (ip), vehicle: carboxymethylcellulose (CMC)) is 86 % of control.

Turning to `CCCCCCCCCCCCN(C)S(=O)(=O)c1ccc(Cl)c(N)c1`, the T/C was 95 % of control (dose: 100.0 mg/kg/injection, schedule: Q01DX009 (ip), vehicle: saline with Tween-80); 91 % of control under setting [11]; 89 % of control (dose: 200.0 mg/kg/injection, schedule: Q01DX009 (ip), vehicle: saline with Tween-80); 108 % of control under setting [12]; 93 % of control (dose: 400.0 mg/kg/injection, schedule: Q01DX009 (ip), vehicle: saline with Tween-80); 89 % of control under setting [13].

Take `O=[N+]([O-])c1cc(Br)ccc1N1CCCC1`: the T/C by setting is: under setting [1], 88 % of control; under setting [2], 101 % of control; under setting [3], 93 % of control.

For the compound `CCNC(=O)c1csnn1`, the T/C (dose: 75.0 mg/kg/injection, schedule: Q01DX001 (ip), vehicle: other) is 98 % of control; the T/C (dose: 150.0 mg/kg/injection, schedule: Q01DX001 (ip), vehicle: other) was 101 % of control; the T/C (dose: 300.0 mg/kg/injection, schedule: Q01DX001 (ip), vehicle: other) is 104 % of control.

On to `COc1cc(C(=O)N2CC2)cc(OC)c1OC`, for which the T/C is 96 % of control (dose: 25.0 mg/kg/injection, schedule: Q01DX009 (ip), vehicle: water) and 96 % of control (dose: 50.0 mg/kg/injection, schedule: Q01DX009 (ip), vehicle: water).

`O=C(NCc1ccccc1)c1ccc(C(=O)NCc2ccccc2)cc1`: the T/C (dose: 100.0 mg/kg/injection, schedule: Q01DX001 (ip), vehicle: other) is 90 % of control; the T/C (dose: 200.0 mg/kg/injection, schedule: Q01DX001 (ip), vehicle: other) was 88 % of control; the T/C (dose: 400.0 mg/kg/injection, schedule: Q01DX001 (ip), vehicle: other) is 96 % of control.

In the case of `OCC(c1ccccc1)C(O)Cc1ccccc1` (stereo not given), the T/C reads like this: (dose: 100.0 mg/kg/injection, schedule: Q01DX001 (ip), vehicle: carboxymethylcellulose (CMC)) 97 % of control; (dose: 200.0 mg/kg/injection, schedule: Q01DX001 (ip), vehicle: carboxymethylcellulose (CMC)) 95 % of control; (dose: 400.0 mg/kg/injection, schedule: Q01DX001 (ip), vehicle: carboxymethylcellulose (CMC)) 101 % of control.

Consider `c1nc(SC2=NCCN2)c2[nH]cnc2n1`, for which the T/C (dose: 2.62 mg/kg/injection, schedule: Q01DX Z (ip), vehicle: saline) was 116 % of control; the T/C (dose: 5.0 mg/kg/injection, schedule: Q01DX001 (ip), vehicle: saline) is 100 % of control; the T/C (dose: 5.25 mg/kg/injection, schedule: Q01DX Z (ip), vehicle: saline) is 118 % of control; the T/C (dose: 5.25 mg/kg/injection, schedule: Q01DX Z (oral), vehicle: saline) was 114 % of control; the T/C (dose: 10.0 mg/kg/injection, schedule: Q01DX001 (ip), vehicle: saline) was 105 % of control; the T/C (dose: 10.5 mg/kg/injection, schedule: Q01DX Z (oral), vehicle: saline) is 114 % of control. In addition, the T/C reads like this: (dose: 12.5 mg/kg/injection, schedule: Q01DX009 (ip), vehicle: saline) 115 % of control; (dose: 12.5 mg/kg/injection, schedule: Q04DX003 (ip), vehicle: saline) 109 % of control; (dose: 20.0 mg/kg/injection, schedule: Q01DX001 (ip), vehicle: saline) 103 % of control; (dose: 22.0 mg/kg/injection, schedule: Q04DX003 (ip), vehicle: saline) 106 % of control; (dose: 25.0 mg/kg/injection, schedule: Q01DX009 (ip), vehicle: saline) 118 % of control; (dose: 25.0 mg/kg/injection, schedule: Q04DX003 (ip), vehicle: saline) 117 % of control. Moreover, the T/C was 114 % of control and 116 % of control (dose: 33.0 mg/kg/injection, schedule: Q04DX003 (ip), vehicle: saline); 108 % of control (dose: 40.0 mg/kg/injection, schedule: Q01DX001 (ip), vehicle: saline); 156 % of control (dose: 42.0 mg/kg/injection, schedule: Q01DX Z (ip), vehicle: saline); 150 % of control and 178 % of control (dose: 50.0 mg/kg/injection, schedule: Q01DX009 (ip), vehicle: saline); 115 % of control and 118 % of control (dose: 50.0 mg/kg/injection, schedule: Q04DX003 (ip), vehicle: saline); 87 % of control (dose: 168.0 mg/kg/injection, schedule: Q01DX Z (oral), vehicle: saline).

Take `CC[CH](C)[Hg][c]1cccc2ccccc12` (stereo not given): the T/C was 96 % of control (dose: 25.0 mg/kg/injection, schedule: Q01DX009 (ip), vehicle: Klucel (hydroxypropylcellulose) (HPC)); 97 % of control (dose: 50.0 mg/kg/injection, schedule: Q01DX009 (ip), vehicle: Klucel (hydroxypropylcellulose) (HPC)); 97 % of control and 100 % of control (dose: 100.0 mg/kg/injection, schedule: Q01DX009 (ip), vehicle: Klucel (hydroxypropylcellulose) (HPC)); 100 % of control under setting [11]; 97 % of control under setting [12]; 96 % of control under setting [13].
